Source: patent US20120034210A1, “COMPOSITIONS FOR POTENTIATING APOPOSIS SIGNALS IN TUMOUR CELLS” (INSTITUT BERGONIE, priority 2008, published 2012)
Entries after “also recorded” stand apart in the source; their conditions may differ.

What was measured:
[1] = system: DISC macro-complex (Fas/FADD/Caspase-8); assay: DISC formation: Fas immunoprecipitation and Western blot; format: cell-based, human; details: H9, Jurkat, activated PBTs; non-cytotoxic concentrations; vs untreated cells
Protocol: Cells were incubated with 1 μg/ml APO1-3 for 30 minutes at 4° C. After washing, cells were incubated for 15 minutes at 4° C. (0 minutes) or at 37° C. (15 minutes) and then lysed for 30 minutes at 4° C. in a lysis buffer (25 mM HEPES pH 7.4, 1% Triton X-100, 150 mM NaCl, 2 mM EDTA, a cocktail including protease inhibitors (Sigma)). The lysed cells were then centrifugated for 15 minutes at 15000 rpm in order to eliminate genomic DNA, and the supernatant was kept. The sepharose beads which were coupled with protein A were added to the lysate and the mixture was incubated for 2 hours. The beads were recovered, washed intensively and the immunoprecipitated proteins were re-suspended in a denaturing and reducing buffer (0.01M Tris-HCl pH6.8, 10% glycerol (v/v), 85 mM sodium dodecyl sulfate (SDS), 5% (v/v) […] and 0.005% (w/v) bromophenol blue) then heated at 100° C. for 5 minutes. The samples were deposited in an acrylamide/Bisacrylamide gel and separated by electrophoresis. The proteins were transferred from the gel into a nitrocellulose membrane using a semi-dry medium transfer technique for 2 hours at constant amperage (0.8 mA/cm^2). […] After transfer, the nitrocellulose membrane was saturated with proteins for 30 minutes with a TBST buffer (50 mM Tris pH=8, 0.15M sodium chloride, 0.05% (v/v) Tween-20) containing 5% (w/v) skimmed powdered milk (TBSTM). After washing with TBST, the membrane was incubated for 2 hours with the primary antibody in TBST. The membrane was washed intensively then incubated for one hour with TBST containing the secondary peroxidase-coupled antibody. […] This solution contained a substrate metabolised by peroxidase to yield a luminescent compound, which allowed marking a radiographic film (Amersham).

[2] = system: T and B leukemia/lymphoma cell lines and activated PBLs treated with FasL; assay: Fas/CD95-mediated cell death (MTT test); format: cell-based, human
Protocol: 2 to 4.10^4 cells were deposited in wells in a 96-well plate. The cells were incubated, in the presence of the different reactants for the times specified, at 37° C. in a final volume of 100 or 200 μl.
The MTT test enabled to measure the activity of a mitochondrial enzyme, the dehydrogenase succinate which transforms MTT (or 3-(4,5-dimethylthiazol-2-yl)-2,5-diphenyltetrazolium) bromide originally yellow in colour and soluble, into blue formazan crystals, insoluble in aqueous phase. Upon completion of the different treatments, the living cells were quantified by adding in each well 15 μl PBS (Phosphate Buffered Saline) containing 5 mg/ml MTT. […] Spectrophotometric reading of absorbance was done at 570 nm. The measurement of the optical density is directly proportional to the number of living cells and the percentage of cell death was calculated with the following formula: 100-[(DO treated cells/DO non-treated cells)*100].

[3] = system: intracellular calcium concentration; assay: Intracellular Ca2+ concentration, indo-1 (micro)spectrofluorimetry; format: cell-based, human
Protocol: Principle: [Ca^2+]i was measured by microspectrofluorimetry using a calcium sensitive fluorescent probe: indo-1. When excited at 360 nm wavelength, the so-called monoexcitation/double emission indo-1 probe transmitted back in a spectrum ranging from 400 to 500 nm. Binding of Ca^2+ to indo-1 caused displacement of the emission spectrum after excitation. The emission maximum in the unbound form was located around 480 nm. The emission of the complexed form was around 405 nm. An increase of calcium concentration thus caused the emission to increase to 405 nm and the emission to decrease to 480 nm. The ratio of both fluorescence intensities allowed to be independent from the quantity of the probe and to determine the [Ca^2+]i according to the Grynkiewicz equation:
[Ca^2+]i(nM)=Kd.β×(R−Rmin)/(Rmax−R)
Rmax, Rmin and Kd. β were determined by combining electrophysiology (patch clamp) and spectrofluorimetry. Rmax was determined by placing in the patch pipette a medium containing 10 mM CaCl2. Rmin was obtained by placing as an intrapipette solution a calcium-deprived medium (10 mM EGTA).
The cells were then rinsed with HBSS (800 rpm centrifugation for 2 minutes) and placed in an observation chamber on a glass coverslip. […] The excitation light is supplied by a Xenon lamp (100W). […] The substances to be tested were applied using a glass pipette positioned at some twenty μm of the studied cell and connected to a pneumatic system.
The principle as well as the loading of the cells were identical with the measurement on single cells. In such a case, approx. 40,000 cells were placed in a quartz tub under constant agitation. The tub was then placed in a Hitachi spectrofluorimeter whereof the excitation monochromator was set to 350 nm. […] The signals were transmitted to a computer via an analogue/digital converter. So as to be able to apply the Grynkiewicz equation (see above) and translate the fluorescence ratios measured in calcium values, the calibration parameters were entered into the software. The substances to be tested were applied directly in the tube under constant agitation.

CD95 [4] = assay: CD95 capping (CD95-CAP), fluorescence confocal microscopy; format: cell-based, human; details: leukemic cell lines; culture up to 24 hours
Protocol: The cells were left to adhere on a slide pre-treated with poly-L-lysin (ESCO, VWR) for 5 minutes then incubated with the different reactants. The cells activated with the anti-Fas APO1-3 agonist antibody were washed and marked directly with the anti-mouse secondary antibody coupled with Alexa555 fluorochrome. The cells incubated with Rituximab (anti-CD20) were washed in a cold PBS buffer then fixed with a PBS/4% PFA (paraformaldehyde) solution for 15 min. […] The cells were washed in PBS medium then the slide was dried and the cells were placed in a mounting medium, Fluoroprep (Biomerieux) and analysed by fluorescence confocal microscopy (LSM SP5, Leica, Germany) with an x63 zoom. The DAPI (200 ng/ml) allowed colouring the nuclei.

caspase-8 = assay: Caspase-8 activation/cleavage; format: cell-based, human
CD95 [5] = assay: CD95 expression; format: cell-based, human; details: 2-APB or BAPTA-AM regimens
Protocol: This technique allowed detecting the presence of a protein on the cell surface. All the steps took place at 4° C. so as to reduce membrane proteins endocytosis and loss of cell labelling.
Plasma membrane of the cells (10^6 cells per marking) was saturated for 5 minutes in 1 ml PBS containing 1% (w/v) BSA (bovine serum albumin) and 1% (v/v) foetal veal serum (FVS). This solution was used for washings and antibody dilutions.
The cells were incubated for 30 minutes with 50 μl primary antibody (anti-Fas DX2 clone at 10 μg/ml), washed twice with the PBS/BSA/FCS solution, then incubated with 50 μl of a secondary antibody coupled with phycoerythrin for 30 minutes. After 3 washings, the cells were re-suspended in 200 μl PBS/BSA/SVF and analysed immediately by flow cytometry (FACsCalibur, BD Biosciences). The fluorescence intensity was analysed with the Cellquest software.

[6] = system: Raji, BL2, Jurkat cell lines and activated PBL; assay: Apoptosis % by loss of mitochondrial membrane potential; format: cell-based, human; details: Zoledronate 10 μM in vitro; BL2, Raji and Jurkat, respectively
Protocol: 2 to 4.10^4 cells were deposited in wells in a 96-well plate. The cells were incubated, in the presence of the different reactants for the times specified, at 37° C. in a final volume of 100 or 200 μl. The apoptotic cells were identified in the cellular populations by measuring mitochondrial de-polarisation. […] These potentiometric probes allowed monitoring the variations of the mitochondrial membrane potential. […] Following cell treatment with the different drugs, the former were placed in the presence of TMRM or DIOC6 at 10 nM concentration, for 20 minutes at 37° C. then the fluorescence of the cells was analysed by flow cytometry.

[7] = Mice calcemia after Zoledronate injection; format: in vivo; details: 4 mg/kg, one injection per week, 4 weeks, blood 3 days after last injection
Protocol: Blood samples were taken from mice 3 days after the last Zoledronate or vehicle injection and calcemia was assessed by COBAS INTEGRA Calcium® (Roche) micro-method.

Raji cells = assay: Raji B lymphoma tumour growth in Rag2-/-γ-/- mice; format: in vivo; details: Raji s.c.; single agent; Rituximab 2 mg/kg, Zoledronate 4 mg/kg
Protocol: The implantation of the tumours was done subcutaneously in Rag2−/−γ−/− mice flank aged from 5 to 7 weeks. Following implantation of the tumours, the mice were divided in groups of 8 to 10 animals for each treatment. The size of the tumour was assessed every day by measuring its width (w) and its length (I). Its volume was calculated according to the formula: V=lw^2/2. At the end of the experiment, the animals were sacrified, the tumour weight was measured.
From 10^6 Raji cells were implanted subcutaneously in mice flank. The effects of Rituximab alone, of Zoledronate alone, are assessed on the growth of tumours. Rituximab (2 mg/kg) was delivered 3 times a week, Zoledronate was delivered 1 time a week.

SMILES	DISC formation / FADD recruitment upon CD95 stimulation [1]	CD95-mediated apoptotic signal in CD95-resistant cells ([2]; Jurkat-CD95Q257K, pre-incubation with non-cytotoxic doses)	potentiation of FasL response ([2]; high doses of 2-APB (44 μM), T or B lymphoma/leukemic cell lines)	apoptotic signal by the agent alone ([2]; leukemic cell lines, long-term culture up to 24 hours, no CD95L)	increase in intracellular calcium induced by Thapsigargin and by extracellular calcium 0 to 5 mM ([3]; 2-APB 44 μM)	concentration of intracellular calcium ([3]; high doses of 2-APB, T or B lymphoma cell lines)	CD95-mediated peak of calcium ([3]; non-cytotoxic concentrations, CD95 stimulation)	basal [Ca2+]i ([3]; pre-incubation of cells)	CD95-CAP formation (CD95 [4])	kinetic of caspase-8 cleavage upon CD95L (caspase-8; T and B-cell lines)	caspase-8 activation or mitochondrial depolarization by the agent alone (caspase-8; during 60 minutes treatment, no CD95L)	expression of CD95 (CD95 [5])	potentiation of apoptotic response to TRAIL, RTX and FasL [6]	intracellular calcium concentration ([3]; Zoledronate in vitro, all model cell lines tested)	calcemia vs vehicle [7]	tumour mass vs vehicle (Raji cells)
NCCOB(c1ccccc1)c1ccccc1 [2-APB, 2-Aminoethoxydiphenyl borate]	dramatically improved the DISC formation; also recorded: induction of DISC formation	restored the CD95-mediated apoptotic signal at a level comparable to the parental cell line	potentiated FasL response; also recorded: sensitizes drastically the Fas apoptotic signal	did not trigger the apoptotic signal	reduced the increase in the intracellular calcium concentration	induced decreasing concentration of intracellular calcium	totally abrogated the CD95-mediated peak of calcium	induced a faint decrease in the basal [Ca^2+]i	drives CD95-CAP	accelerated the cleavage of the initiator caspase-8	no trace of caspase-8 activation or mitochondrial depolarization was detected	did not modify the expression of CD95	–	–	–	–
O=P(O)(O)C(O)(Cn1ccnc1)P(=O)(O)O [Zoledronate, zoledronate]	–	–	–	–	–	–	–	–	–	–	–	–	does not potentiate the apoptotic response	did not affect intracellular calcium concentration	significant (p<0.05) decrease in their calcemia	not significantly affected
